We go through six molecules from publication PMC3742835, “Powerful Inhibition of Experimental Human Pancreatic Cancers by Receptor Targeted Cytotoxic LH-RH analog AEZS-108” (Oncotarget, 2013).

For data set [1], the system named is nitrosamine-induced pancreatic cancers. The settings on record: hamsters; cited from earlier work. An excerpt:
Receptors for various peptide hormones are present in pancreatic cancers and these receptors can be utilized for both diagnostic and therapeutic purposes.. […] [15, 21] however, their function and importance is still unclear. The combined detection of mRNA for both LH-RH and LH-RH receptor in rat pancreatic cancer lines raised the possibility of an autocrine/paracrine role of LH-RH in these tumors. The findings that both estrogen and androgen receptors are likewise expressed in pancreati ...

Another data set has as its system SW-1990 cancers. The data set is described as follows: Experiment 2: SW-1990 tumor growth in nude mice. It is filed as in vivo, human (xenograft in nude mice). Conditions: for Tumor volume (final): control 3464±838; for Tumor volume (final) / Tumor weights, solid tumor part: AN-152 and DOX P<0.05 vs. control; for Tumor weights, tumors with cysts: control 3729±921, AN-152 P<0.05 vs. control; for Tumor weights, solid tumor part: cut, fluid released, control 2473±636. Here is the method: (§1) Control and treatment groups were then selected at random.
All compounds were administered iv.(at 6.9 μmol/kg) once weekly for 7 weeks. There were 10 animals per group. The experiment was terminated 65 days after the first treatment.
(In general: In xenograft studies the graft and the host belong to different species.)

The test system of data set [2] is CFPAC-1 cancers. The data set is described as follows: Experiment 3: CFPAC-1 tumor growth in nude mice.
Experimental: Chemicals, unless stated otherwise, were purchased from Sigma (St. Louis, MO).
Female athymic nude mice (Ncr nu/nu) were obtained from the National Cancer Institute (Frederick Cancer Research and Development Center, Frederick, MD), Charles River Laboratories International, Inc. (Durham, NC) and Harlan Laboratories (Tampa, FL) and maintained under pathogen-limited conditions. […] To produce tumor donor animals, 10^6 cells of each line were injected subcutaneously into 3 nude mice and grown until well-developed tumors were grown. The resulting tumors were removed, minced and 2 mm^3 pieces of tumor tissue were transplanted subcutaneously into each flank area of the experimental nude mice. When the tumors became measurable, the mice were divided into groups with nearly equal average tumor sizes. Control and treatment groups were then selected at random.
The compounds were given iv. on days 1, 5, 8, 12, 15 and 30. There were 8 animals per group, and the experiment lasted to the 61st day of the treatment period.
One-way ANOVA (Sigmaplot-11 software; Jandel Scientific, San Raphael, CA) was used for statistical evaluation of the data, and the groups were compared using Dunnett's method.
For data set [3], the system named is Panc-1 cancers. The data set is described as follows: Experiment 1: Panc-1 tumor growth in nude mice. Conditions: AN-152 6.9 μmol/kg, DOX 2.5 μmol/kg. It counts as in vivo, human (xenograft in nude mice). As for the experimental part:
as §1
(§2) In Experiment 1, nude mice with Panc-1 tumors were treated iv. on days 1, 8. […] There were 8 animals in each group. The experiment was terminated on day 82.

The test system of data set [4] is Panc-1 cancers. The data set is described as follows: Human Cancer Pathway Finder PCR Array, Panc-1 tumors. It is filed as in vivo, human (xenograft in nude mice). An excerpt: (§3) After isolating total RNA and protein from tumor samples from experiments 2, 3 and 4 by using the NucleoSpin kit (Macherey-Nagel, Bethlehem, PA, USA), the Human Cancer Pathway Finder Superarray and the Human Apoptosis RT Profiler PCR Array (Qiagen Inc. Valencia, CA, USA) were used to analyze 3 representative samples from each group for mRNA levels of genes related to cell adhesion, apoptosis, cell cycle, angiogenesis, signal transduction, invasion and metastasis. Quality control of RNA samples, synthesis of cDNA and RT-PCR arrays were performed as described. Gene expression data were examined using Excel based PCR Array Data Analysis Software provided by Qiagen; fold-changes in gene expression were calculated using the ΔΔCt method and five housekeeping genes (B2M, HPRT1, RPL13A, GAPDH, and ACTB) were used for normalization of the results.

Data set [5] relates to Panc-1 cancers. The data set is described as follows: Human Apoptosis RT Profiler PCR Array, Panc-1. It counts as in vivo, human (xenograft in nude mice).
Excerpt: as §3

The nature of data set [6]: Experiment 1: body and organ weights of mice. It counts as in vivo. The settings on record: Experiment 1, nude mice with Panc-1; AN-152 6.9 μmol/kg, DOX 2.5 μmol/kg iv. As for the experimental part:
as §1, §2

In data set [7] the test system is SW-1990 tumors. The data set is described as follows: Human Cancer Pathway Finder PCR Array, SW-1990 tumors. It is filed as in vivo, human (xenograft in nude mice).
Excerpt: as §3

Data set [8] concerns CFPAC-1 cancers. The data set is described as follows: Human Cancer Pathway Finder PCR Array, CFPAC-1 tumors. It counts as in vivo, human (xenograft in nude mice).
Excerpt: as §3

The nature of data set [9]: Experiment 3: body and organ weights of mice. It counts as in vivo. Conditions: Experiment 3, nude mice with CFPAC-1; iv.
Excerpt: as §1

Data set [10] deals with three tumor lines (Panc-1, SW-1990, CFPAC-1). The data set is described as follows: Human Cancer Pathway Finder PCR Array, three tumor lines together. It is filed as in vivo, human (xenograft in nude mice).
Excerpt: as §3

Data set [11] deals with CFPAC-1 cancers. The data set is described as follows: Human Apoptosis RT Profiler PCR Array, CFPAC-1. It counts as in vivo, human (xenograft in nude mice).
Excerpt: as §3

The subject of data set [12] is SW-1990 tumors. The data set is described as follows: Human Apoptosis RT Profiler PCR Array, SW-1990. It counts as in vivo, human (xenograft in nude mice).
Excerpt: as §3

Data set [13] deals with advanced pancreatic cancers. Conditions: cited from earlier work. An excerpt: Pancreatic carcinoma is the 9th most common human cancer in the Western world, including the USA, but it is the fourth leading cause of cancer death in both males and females. Its incidence has increased in the white population by about 1% per year between 1999 through 2008. Ductal carcinomas of the pancreas are very aggressive tumors, and because of the concealed location of the gland, they are mostly detected in late stages of development when surgical removal is not useful. Thus, the 5-year survival rate is below 5% and the median survival time after diagnosis is less than 6 mo ...

The test system of data set [14] is binding sites for LH-RH in nitrosamine-induced pancreatic cancers in hamsters. More on the design: method as in PMID 15350601. Conditions: cited from earlier work.
Setting [15] is: SW-1990, 6.9 μmol/kg iv once weekly for 7 weeks, 10 animals/group, day 65, means ± SE.

As to D-Trp^6LH-RH, the “Growth inhibition of nitrosamine-induced pancreatic cancers” value in [1] is “inhibits growth”. In the data set on SW-1990 cancers (SW-1990, 6.9 μmol/kg iv once weekly for 7 weeks, 10 animals/group, day 65, means ± SE, control 1.56±0.12, AN-152 P<0.05 vs. all other groups), the “Cystic/solid tumor (weight ratio)” value worked out at 1.56±0.11. In addition, in the data set with SW-1990 cancers (setting [15]), the “Tumor volume (final)” value is 2791±646 mm3; the “Tumor weights, tumors with cysts” value came to 3107 ± 696 mg; the “Tumor weights, solid tumor part” value came out at 1862 ± 361 mg.

As for cetrorelix, in [1], the “Growth inhibition of nitrosamine-induced pancreatic cancers” value is reported as “inhibits growth”.

As for `COc1cccc2c1C(=O)c1c(O)c3c(c(O)c1C2=O)C[C@@](O)(C(=O)CO)C[C@@H]3O[C@H]1C[C@H](N)[C@H](O)[C@H](C)O1` [DOX, doxorubicin], the “Tumor volume (in words)” value in the data set on CFPAC-1 cancers [2] (iv days 1, 5, 8, 12, 15 and 30) is recorded as “moderate but not significant decrease”. The “Tumor volume (final)” value with CFPAC-1 cancers [2] (iv days 1, 5, 8, 12, 15 and 30, 8 animals/group, day 61, means ± SE, control 2502±769, AN-152 P<0.05 vs. control) is 1063±518 mm3; in the data set on Panc-1 cancers [3] (Panc-1, iv days 1, 8, 15, 22, 33, 61, 8 animals/group, day 82, means ± SE, control 2040±1357, AN-152 P<0.05 vs. control) it was 849±363 mm3; in the data set with SW-1990 cancers (setting [15]) it was 1213±381a mm3. For the same molecule, the “Growth inhibition (in words)” value was “only a moderate but not significant inhibitory effect” in the data set with Panc-1 cancers [3] (Panc-1 in nude mice, iv) and “inhibitory effect on growth” in the data set on SW-1990 cancers (SW-1990 in nude mice). The “Expression of cell cycle control and DNA damage repair genes” value in the data set with Panc-1 cancers [4] is reported as “altered in both directions”; in the data set on SW-1990 tumors [7], “altered in both directions”; in the data set with CFPAC-1 cancers [8] it was “only decreases”. For the same molecule, the figures for the “Expression of genes associated with adhesion” value with Panc-1 cancers [4] (treated vs control tumors), in the data set with SW-1990 tumors [7] (treated vs control tumors) and in the data set with CFPAC-1 cancers [8] (treated vs control tumors) were “decreased”, “changed in both directions” and “decreased”, respectively. The “Expression of anti-apoptotic genes” value is reported as “mostly increased” with Panc-1 cancers [5], “decreased” in the data set on CFPAC-1 cancers [11] and “mostly increased” in the data set on SW-1990 tumors [12]. Besides, the “Expression of pro-apoptotic genes” value with Panc-1 cancers [5] (several genes) is given as “increased”; with CFPAC-1 cancers [11] (several genes), “decreased”; in the data set with SW-1990 tumors [12] (several genes) it was “changed in both directions”. For the same molecule, the “Effect on body and organ weights” value in data set [6] is “Neither treatment had an effect on body and organ weights of the mice”. Besides, in [9], the Body weights entry is on record as “the lowest in the group receiving DOX, but the differences from control were statistically not significant”. In addition, the Ovarian weights result in [9] is recorded as “reduced”. Further, in the data set on SW-1990 cancers (SW-1990, 6.9 μmol/kg iv once weekly for 7 weeks), the “Solid tumor weights (in words)” value is reported as “reduced”. For the same molecule, the “Tumor weights, tumors with cysts” value in the data set on SW-1990 cancers (setting [15]) came to 1496 ± 466 mg. Also, in the data set on SW-1990 cancers (setting [15]), the “Tumor weights, solid tumor part” value was 585 ± 141 mg. Besides, the “Expression of genes related to invasion and metastasis” value in data set [10] (all three tumor lines, treated vs control tumors) was “causing the stronger increases”. The TIMP3 expression entry in [10] (three tumor lines) is “strongly increased”. The “Expression of genes related to signal transduction molecules and transcription factors” value in data set [10] (three tumor lines, treated vs control tumors) is listed as “caused considerable increases or decreases in some”. Also, the “Expression of apoptosis-associated genes” value in [10] (three tumors, Cancer Pathway Finder array) was “variable in the three tumors after both treatments”.

For the molecule `Nc1ccn([C@@H]2O[C@H](CO)[C@@H](O)C2(F)F)c(=O)n1` [gemcitabine], the Clinical efficacy result in data set [13] (gemcitabine alone or in combination with 5-fluorouracil, radiation or erlotinib, advanced pancreatic cancers) is “minimal palliation”.

Consider FOLFIRINOX, for which the Toxicity result in data set [13] (human, in vivo) is listed as “highly toxic”.

Take LH-RH: hypothalamic peptide hormone: the “Affinity of binding sites for LH-RH” value in data set [14] was “moderate-affinity”.
